According to patent publication US6989140B2, “Methods for cancer imaging” (Threshold Pharmaceuticals, Inc., priority 2001, dated 2006):

How the values were obtained:
[1] = Solubility of the isolated conjugate in methanol and water; format: physicochemical; conditions: isolated product after preparative TLC
Experimental: More particularly, 2.2 mg (4 micromoles) of 6-((4,4-difluoro-5,7-dimethyl-4-bora-3a,4a-diaza-s-indacene-3-propionyl)amino)hexanoic acid, succinimidyl ester was dissolved in 0.3 ml of DMF followed by the addition of 6 mg (28 micromoles) of glucosamine HCL dissolved in 0.3 ml of water and 3.9 microliters (28 micromoles) of triethyl amine. The reaction was stirred for 24 hrs at room temperature, evaporated under reduced pressure, and dissolved in a minimum of methanol. This solution was spread on a preparative TLC plate (silica), dried, and developed with 2.5% water in acetonitrile. The plate was then dried and the product visualized with a UV light.
About 4 mg (4.8 micromoles) of Texas Red®-X, succinimidyl ester *single isomer* (816.94 MW, Molecular Probes, T-20175) were dissolved in 1.2 ml of methanol and combined with 4 mg (18 micromoles) of glucosamine HCl (Sigma) in 600 microliters of water. About 2.5 microliters (18 micromoles) of triethylamine were then added. The reaction was stirred overnight at 20° C. and then evaporated under reduced pressure. The gum was dissolved in methanol and spread on a preparative TLC plate (silica), dried, and developed with 10% water in acetonitrile. The plate was then dried and the product visualized with a UV light. […] B. Synthesis of 5-(and 6) Carboxynaphtofluorescein Glucosamine Conjugate [drawing 12]
About 8.3 mg (14 micromoles) of 5-(and-6)-carboxynaphthofluorescein, succinimidyl ester *mixed isomers* (MW 573.51, Molecular Probes, C-653) were dissolved in 2 ml of DMF, and 10 mg (46 micromoles) of glucosamine HCl (Sigma) in 1 ml of water was added. About 5.8 microliters (46 micromoles) of triethylamine were then added. The reaction was stirred overnight at 20° C. and then evaporated under reduced pressure. The gum was dissolved in 25% water in methanol and spread on a preparative TLC plate (silica), dried, and developed with 10% water in acetonitrile. The plate was then dried and the product visualized with a UV light. […] C. Synthesis of Glucosamine N-Methylanthranilamide Conjugate [drawing 13]

Raji lymphoma cells = assay: 2-NBDG uptake in Raji lymphoma cells versus peripheral blood white cells (PBMC); format: cell-based; conditions: Raji lymphoma cells vs PBMC; 200 uM; 40 min; 37° C.; fluorescence plate reader (FIG. 2)
Experimental: Raji cells from culture one t-75 flask. Peripheral blood white cells from Stanford Blood Bank. Leukocytes were further separated by Ficoll separation (twice). These cells are referred to as PBMC (peripheral blood mononuclear cells). Phosphate-buffered saline. 2-NBDG, 0.1 M in water.
Culture medium with cells (either Raji or PBMC, 15 mL) were centrifuged for 10 min at 800×g. The pellet of cells was resuspended in PBS and centrifuged for 10 min at 800×g, and the resulting pellet was resuspended in 1.5 mL PBS. Cells were counted and adjusted to 1×10^6 per mL for both. Aliquots (100 uL) were placed into each of 2 tubes for each cell type, and the tubes were incubated at 37° C. for 15 min. The fluorescent deoxyglucose conjugate 2-NBDG was added to each tube to provide a concentration of 200 uM. At 40 min, the tubes were removed from the 37° C. bath and immediately placed on ice. The cells were washed twice with PBS and resuspended in 100 uL of PBS. A 20 uL aliquot was placed in each of 5 wells of an LJL 96-well plate, and fluorescence was counted by a LJL plate reader.

O=C(NC1C(O)OC(CO)C(O)C1O)c1ccc(C(=O)O)c(-c2c3ccc4cc(O)ccc4c3oc3c2ccc2cc(=O)ccc23)c1 (centres unmarked)
solubility in methanol [1]: soluble | solubility in water [1]: sparingly soluble

O=C(CCCCCNS(=O)(=O)c1ccc(C2=c3cc4c5c(c3Oc3c2cc2c6c3CCCN6CCC2)CCC[N+]=5CCC4)c(S(=O)(=O)[O-])c1)NC1C(O)OC(CO)C(O)C1O (single isomer, unassigned) [Texas Red Glucosamine Conjugate]
solubility in methanol [1]: soluble | solubility in water [1]: sparingly soluble

O=C[C@H](Nc1ccc([N+](=O)[O-])c2nonc12)[C@@H](O)[C@H](O)[C@H](O)CO [2-NBDG, 2-(N-(7-nitrobenz-2-oxa-1,3-diazol-4-yl)amino)-2-deoxyglucose]
uptake by a cancer cell as compared to a normal cell (Raji lymphoma cells): preferred uptake
